Patent publication US9096615B2, “Bridged bicyclic amino thiazine dioxide compounds as inhibitors of beta-secretase and methods of use thereof” (AMGEN INC., priority 2013, dated 2015)
Like-named read-outs stand apart in the source and are kept apart here.

Legend:
Abeta 40 = experiment: In vivo inhibition of beta-secretase: percent Abeta 40 reduction in CSF and brain; parameters: species or system rat; settings: 10 mpk, after 4 hrs
Source text: In Vivo Inhibition of Beta-Secretase
Several animal models, including mouse, rat, dog, and monkey, may be used to screen for inhibition of beta-secretase activity in vivo following administration of a test compound sample. Animals used in this invention can be wild type, transgenic, or gene knockout animals. For example, the Tg2576 mouse model, prepared and conducted as described in Hsiao et al., 1996, Science 274, 99-102, and other non-transgenic or gene knockout animals are useful to analyze in vivo inhibition of Amyloid beta peptide (Abeta) production in the presence of inhibitory test compounds. Generally, 2 to 18 month old Tg2576 mice, gene knockout mice or non-transgenic animals are administered test compounds formulated in vehicles, such as cyclodextran, phosphate buffers, hydroxypropyl methylcellulose or other suitable vehicles. One to twenty-four hours following the administration of compound, animals are sacrificed, and brains as well as cerebrospinal fluid (CSF) and plasma are removed for analysis of A-beta levels and drug or test compound concentrations (Dovey et al., 2001, Journal of Neurochemistry, 76, 173-181) Beginning at time 0, animals are administered by oral gavage, or other means of delivery such as intravenous injection, an inhibitory test compound of up to 100 mg/kg in a standard, conventional formulation, such as 2% hydroxypropyl methylcellulose, 1% Tween80. A separate group of animals receive 2% hydroxypropyl methylcellulose, 1% Tween80 alone, containing no test compound, and serve as a vehicle-control group. At the end of the test period, animals are sacrificed and brain tissues, plasma or cerebrospinal fluid are collected. Brains are either homogenized in 10 volumes (w/v) of 0.2% diethylamine (DEA) in 50 mM NaCl (Best et al., 2005, Journal of Pharmacology and Experimental Therapeutics, 313, 902-908), or in 10 volumes of 0.5% TritonX-100 in Tris-buffered saline (pH at about 7.6). Homogenates are centrifuged at 355,000 g, 4° C. for 30 minutes. CSF or brain supernatants are then analyzed for the presence of A-beta peptide by specific sandwich ELISA assays based on ECL (Electrochemiluminescence) technology. For example, rat Abeta40 is measured using biotinylated-4G8 (Signet) as a capture antibody and Fab40 (an in-house antibody specific to the C-terminal of Abeta40) as a detection antibody. For example, 4 hours after administration of 30 mg/kg oral dose of the test compound in 2% hydroxypropyl methylcellulose, 1% Tween80 (pH2.2) to 200 g male Sprague Dawley rats, amyloid beta peptide levels are measured for reduction by X % and Y % in cerebrospinal fluid and brain, respectively, when compared to the levels measured in the vehicle-treated or control […].
Actual vehicles used: Oral: 2% HPMC, 1% Tween80, pH 2.2
• IV: 5% EtOH, 45% Propylene glycol in 5% Dextrose
The compounds of the invention may be shown to reduce the formation and/or deposition of amyloid beta peptide in the cerebrospinal fluid (CSF) as well as in the brain of a mouse or rat at either 3 mpk, 10 mpk or 30 mpk (mpk=mg compound per kg weight of the animal) dosing concentrations after 4 hrs.

BACE1 = BACE1 (Homo sapiens, UniProt P56817); experiment: In vitro enzymatic BACE FRET assay; assay type: biochemical
Chain of BACE1 (P56817 46-501, species assumed): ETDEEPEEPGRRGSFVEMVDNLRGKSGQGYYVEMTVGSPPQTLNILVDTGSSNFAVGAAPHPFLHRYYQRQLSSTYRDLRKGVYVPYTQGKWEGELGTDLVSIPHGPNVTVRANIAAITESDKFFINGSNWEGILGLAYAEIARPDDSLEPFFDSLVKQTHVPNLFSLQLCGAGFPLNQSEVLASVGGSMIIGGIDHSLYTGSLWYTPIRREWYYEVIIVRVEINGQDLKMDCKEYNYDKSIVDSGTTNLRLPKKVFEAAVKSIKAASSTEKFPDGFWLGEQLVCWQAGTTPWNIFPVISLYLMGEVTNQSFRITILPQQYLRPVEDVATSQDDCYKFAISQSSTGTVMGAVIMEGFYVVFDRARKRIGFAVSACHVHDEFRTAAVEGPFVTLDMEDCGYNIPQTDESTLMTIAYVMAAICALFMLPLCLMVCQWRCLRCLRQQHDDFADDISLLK
In short: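 BACE (0.2 nM) pre-incubated 1 h with serially diluted inhibitor in 0.05 M acetate pH 4.2, 10% DMSO, 100 uM genapol; 50 nM FRET peptide substrate added, 1 h incubation. Stopped with Tris to neutral pH; fluorescence read (ex 488, […]).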

Cathepsin D (Cat D) = target: T1, Cathepsin D (Cat D) (Homo sapiens, UniProt P07339); experiment: In vitro enzymatic Cathepsin D (Cat D) FRET assay; assay type: biochemical; settings: read-out: CatD IC50
T1 construct: made in house; host or cells: CHO cells
T1 sequence (P07339 65-412, species assumed): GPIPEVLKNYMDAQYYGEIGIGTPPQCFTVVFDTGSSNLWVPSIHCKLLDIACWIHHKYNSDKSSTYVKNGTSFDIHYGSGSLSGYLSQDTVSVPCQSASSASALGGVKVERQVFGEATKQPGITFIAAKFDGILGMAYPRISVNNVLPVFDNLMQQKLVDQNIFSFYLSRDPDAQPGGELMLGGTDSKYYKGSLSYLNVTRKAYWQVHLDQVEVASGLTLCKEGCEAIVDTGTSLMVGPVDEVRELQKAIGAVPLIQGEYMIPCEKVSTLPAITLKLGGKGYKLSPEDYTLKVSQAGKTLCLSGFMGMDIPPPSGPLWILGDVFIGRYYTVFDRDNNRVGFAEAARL
In short: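 Recombinant human Cat D expressed in CHO cells, 9 nM, pre-incubated 1 h with inhibitor in 0.05 M citrate pH 3.5, 10% DMSO, 5 mM CHAPS. Reaction started with 20 nM FRET peptide substrate, run 1 h, stopped with Tris to neutral pH; fluorescence read at ex 500/em 580 nm.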

[1] = tested on: Aβ40 in conditioned medium of cells stably expressing Amyloid Precursor Protein (APP); experiment: In vitro BACE cell-based assay (HEK cell assay, Aβ40 sandwich ELISA); settings: Homo sapiens, HEK293
In short: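 APP-stable cells were cultured 24 h at 37 °C, then given compound as 10-point dose-response (top 100 μM or 10 μM; 0.1% DMSO final) for 24 h. Aβ40 in conditioned medium was measured by sandwich ELISA (pAb40 capture, biotinylated 6E10 detection, Eu time-resolved fluorescence). IC50 from percent inhibition versus concentration.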

[2] = Abeta 40, rat CSF, read-out: % reduction of rat CSF levels at 10 pmk
[3] = Abeta 40, rat brain, read-out: % reduction of rat brain levels at 10 mpk
[4] = average IC50, read-out: BACE1 Enzyme assay IC50
[5] = average IC50, read-out: BACE1 cell assay IC50

IC50 (BACE1; read-out: BACE1 FRET assay IC50) [nM] | IC50 (Cathepsin D (Cat D)) [µM] | IC50 ([1]; Aβ40, 24 h incubation, read-out: HEK cell assay IC50) [nM] | IC50 (BACE1; [4]) [nM] | IC50 (Cathepsin D (Cat D); average IC50, first procedure) [µM] | IC50 [1, 5] [nM] | SMILES | inhibition in vivo at 10 mg/kg (Abeta 40; [2]) [%] | inhibition in vivo at 10 mg/kg (Abeta 40; [3]) [%]
10100 | 287 | 5810 |  |  |  | C[C@]1(c2cc(N)ccc2F)N=C(N)[C@@]2(C)CC[C@@H]1S2(=O)=O [Example 35, (1R,4R,5S)-4-(5-amino-2-fluorophenyl)-1,4-dimethyl-8-thia-3-azabicyclo[3.2.1]oct-2-en-2-amine 8,8-dioxide] | 52 | 46
 |  |  | 2 | > 400 | 3 | CC#Cc1ccc(C(=O)Nc2ccc(F)c([C@@]3(C)N=C(N)[C@@]4(C)CC[C@@H]3S4(=O)=O)c2)nc1 [Example 69, N-(3-((1S,2R,5R)-4-amino-2,5-dimethyl-8,8-dioxido-8-thia-3-azabicyclo[3.2.1]oct-3-en-2-yl)-4-fluorophenyl)-5-(1-propyn-1-yl)-2-pyridinecarboxamide] | 42 | 9
 |  |  | 9 | 1830 | 3 | COc1cnc(C(=O)Nc2ccc(F)c([C@@]3(C)N=C(N)[C@@]4(C)CC[C@@H]3S4(=O)=O)c2)c(C)n1 [Example 79, N-(3-((1S,2R,5R)-4-amino-2,5-dimethyl-8,8-dioxido-8-thia-3-azabicyclo[3.2.1]oct-3-en-2-yl)-4-fluorophenyl)-5-methoxy-3-methyl-2-pyrazinecarboxamide] | 71 | 62
 |  |  | 4 | 789 | 5 | Cc1cc(C(F)(F)F)cnc1C(=O)Nc1ccc(F)c([C@@]2(C)N=C(N)[C@@]3(CF)CC[C@@H]2S3(=O)=O)c1 [Example 92, N-(3-((1S,2R,5R)-4-amino-5-(fluoromethyl)-2-methyl-8,8-dioxido-8-thia-3-azabicyclo[3.2.1]oct-3-en-2-yl)-4-fluorophenyl)-3-methyl-5-(trifluoromethyl)-2-pyridinecarboxamide] | 73 | 67
 |  |  | 5 | 286 | 15 | C[C@]1(c2cc(Nc3ncnc4cc(Cl)cnc34)ccc2F)N=C(N)[C@@]2(CF)CC[C@@H]1S2(=O)=O [Example 98, N-(3-((1S,2R,5R)-4-amino-5-(fluoromethyl)-2-methyl-8,8-dioxido-8-thia-3-azabicyclo[3.2.1]oct-3-en-2-yl)-4-fluorophenyl)-7-chloropyrido[3,2-d]pyrimidin-4-amine] | 70 | 74
 |  |  | 9 | 891 | 7 | Cc1cc(C(F)F)cnc1C(=O)Nc1ccc(F)c([C@@]2(C)N=C(N)[C@@]3(CF)CC[C@@H]2S3(=O)=O)c1 [Example 103, N-(3-((1S,2R,5R)-4-amino-5-(fluoromethyl)-2-methyl-8,8-dioxido-8-thia-3-azabicyclo[3.2.1]oct-3-en-2-yl)-4-fluorophenyl)-5-(difluoromethyl)-3-methyl-2-pyridinecarboxamide] | 62 | 58
 |  |  | 2 | 926 | 4 | C[C@]1(c2cc(NC(=O)c3ncc(Cl)cc3Cl)ccc2F)N=C(N)[C@@]2(CF)CC[C@@H]1S2(=O)=O [Example 105, N-(3-((1S,2R,5R)-4-amino-5-(fluoromethyl)-2-methyl-8,8-dioxido-8-thia-3-azabicyclo[3.2.1]oct-3-en-2-yl)-4-fluorophenyl)-3,5-dichloro-2-pyridinecarboxamide] | 74 | 71
 |  |  | 10 | 185 | 18 | C[C@]1(c2cc(Nc3ncnc4cc(C(F)(F)F)cnc34)ccc2F)N=C(N)[C@@]2(CF)CC[C@@H]1S2(=O)=O [Example 107, N-(3-((1S,2R,5R)-4-amino-5-(fluoromethyl)-2-methyl-8,8-dioxido-8-thia-3-azabicyclo[3.2.1]oct-3-en-2-yl)-4-fluorophenyl)-7-(trifluoromethyl)pyrido[3,2-d]pyrimidin-4-amine] | 53 | 43
 |  |  | 17 | 1040 | 7 | C[C@]1(c2cc(NC(=O)c3cnc(C(F)F)cn3)ccc2F)N=C(N)[C@@]2(CF)CC[C@@H]1S2(=O)=O [Example 109, N-(3-((1S,2R,5R)-4-amino-5-(fluoromethyl)-2-methyl-8,8-dioxido-8-thia-3-azabicyclo[3.2.1]oct-3-en-2-yl)-4-fluorophenyl)-5-(difluoromethyl)-2-pyrazinecarboxamide] | 70 | 57
 |  |  | 6 | 536 | 5 | C[C@]1(c2cc(NC(=O)c3ccc(C(F)(F)F)cn3)ccc2F)N=C(N)[C@@]2(CF)CC[C@@H]1S2(=O)=O [Example 110, N-(3-((1S,2R,5R)-4-amino-5-(fluoromethyl)-2-methyl-8,8-dioxido-8-thia-3-azabicyclo[3.2.1]oct-3-en-2-yl)-4-fluorophenyl)-5-(trifluoromethyl)-2-pyridinecarboxamide] | 65 | 54
 |  |  | 1 | 417 | 1 | Cc1cnc(COc2cnc3c(Nc4ccc(F)c([C@@]5(C)N=C(N)[C@@]6(C)CC[C@@H]5S6(=O)=O)c4)nccc3n2)o1 [Example 146, N-(3-((1S,2R,5R)-4-amino-2,5-dimethyl-8,8-dioxido-8-thia-3-azabicyclo[3.2.1]oct-3-en-2-yl)-4-fluorophenyl)-2-((5-methyl-1,3-oxazol-2-yl)methoxy)pyrido[3,4-b]pyrazin-5-amine] | 35 | 13
